Legend:
[1] = test system: ex vivo rat hearts; assay: Ex vivo administration of ψεRACK prior to ischemia: CPK release in perfusate of Langendorff-perfused hearts; conditions: 0.5 μM peptide for 20 minutes prior to 45 minutes global ischemia; 30 minute reperfusion; FIG. 1A
Description: Animals were anesthetized as described in Example 1 and their hearts were rapidly removed and cannulated for perfusion on a Langendorff apparatus. Hemodynamic parameters were monitored until stabilized, typically for 10-20 minutes. After equilibration, ψεRACK peptide (SEQ ID NO:2) or a scrambled ψεRACK peptide (SEQ ID NO:4) were delivered to the hearts via the coronary arteries using 0.5 μM of peptide for 20 minutes.
To induce global ischemia, flow to the hearts was interrupted for 45 minutes. The hearts were then reperfused for 30 minutes. During reperfusion, ischemic-induced cell damage was determined by measuring the activity of creatine phosphokinase (absorbance at 520 nm) in the perfusate. […]
Mice or rats were anesthetized with i.p. avertin, and their hearts were rapidly removed and cannulated via the aorta for reperfusion as described in the art (Colbert et al, 1997). […] The left ventricular pressure and real-time derivative (dP/dt) were monitored via a catheter placed in the ventricular apex. […]
To induce global ischemia, flow was interrupted for 45 minutes. […] During reperfusion, ischemia-induced cell damage was determined by measuring the activity of creatine phosphokinase (CPK) (absorbance at 520 nm) in the perfusate using a Sigma kit.

[2] = test system: pig heart; assay: In vivo administration during LAD balloon occlusion in pigs: infarct area of area at risk; conditions: for infarct of area at risk: about 20 μg peptide during first 10 minutes of 30 minute occlusion, hearts analysed five days later, average, p<0.005
Description: In another study in support of the invention, the ability of ψεRACK peptide to protect tissue from damage due to an ischemic or hypoxic event was evaluated by administering the peptide in vivo. As detailed in Example 3, ψεRACK peptide (SEQ ID NO:2) or scrambled ψεRACK peptide (SEQ ID NO:4) was administered to adult pigs during the first 10 minutes of a 30 minutes ischemic insult. Five days later, the hearts were analyzed for tissue damage.
Young adult female pigs, 35-40 kg in weight, were anesthetized and a catheter was introduced through the carotid artery into the heart. Using conventional intervention cardiology techniques, a wire was placed through a catheter and into the left anterior descending artery (LAD): A balloon was run over this wire to a site of occlusion where it was then inflated to block blood flow for 30 minutes. During the first 10 minutes of the ischemic insult, either the control scrambled ψεRACK peptide (SEQ ID NO:4, n=5) or the biologically active RACK peptide (SEQ ID NO:2, n=5) was delivered by diffusion through the balloon directly downstream of the occlusion. Approximately 20 μg peptide (˜400 ng per kg body weight) was administered.
After 30 minutes of occlusion, the balloon was removed and pigs were left to recover from surgery. Five days later, the pigs were euthanized and hearts were harvested. After heart removal, the LAD was occluded. With the occlusion in place, Evans Blue dye, which stains all areas not at risk of infarct in blue while leaving all areas with no access to blood flow red, was infused. Hearts were then cut into slices and stained with a tetrazolium red dye which stains all live areas red and infarcted dead tissue in white. Each heart had multiple tissue slices with distinctive areas marking the area at risk for ischemia and the infarcted area. From this the percent infarct per area at risk for each slice and for the entire heart was determined.

[3] = test system: ex vivo hearts; assay: Functional recovery of ex vivo hearts after global ischemia (left ventricle pressure, dP/dt, perfusion pressure); design: species or system Mice or rats; conditions: 500 nM peptide prior to 30 minute global ischemia; 30 minute reperfusion
Description: In another study in support of the invention, the functional recovery of ex vivo hearts after an ischemic event was evaluated by monitoring, the isovolumic left ventricle pressure (LVP) at a constant pacing (3.3 Hz) and at a constant coronary flow (10 mL/min), as described in Example 1. Prior to the ischemic event, the hearts were treated with 500 nM ψεRACK (SEQ ID NO:2) or with scrambled ψεRACK peptide (SEQ ID NO:4). After the 30 minute global ischemia, the hearts were monitored during a 30 minute reperfusion period.
Mice or rats were anesthetized with i.p. avertin, and their hearts were rapidly removed and cannulated via the aorta for reperfusion as described in the art (Colbert et al, 1997). Care was taken to have the hearts perfused within 90 seconds of removal. The left ventricular pressure and real-time derivative (dP/dt) were monitored via a catheter placed in the ventricular apex. Hemodynamic parameters were archived every 20 seconds throughout the procedure. The hearts were perfused with oxygenated Krebs-Henseleit solution comprised of, in […], NaCl 120; KCl 5.8; NaHCO3 25; NaH2O4 1.2; MgSO4 1.2; CaCl2 1.0; and dextrose 10, pH 7.4 at 37 C.
After a 10-20 minute equilibration period, the hearts were treated with ψεRACK peptide (SEQ ID NO:2) or with scrambled ψεRACK peptide (SEQ ID NO:4) for 20 minutes. […]

[4] = test system: whole rat hearts; assay: Ex vivo administration of ψεRACK after ischemia: CPK release in perfusate during reperfusion; conditions: 0.5 μM peptide for first 20 minutes of reperfusion after 45 minutes ischemia; 60 minute period; FIG. 3B
Description: In another study performed in support of the invention, ψεRACK was administered to hearts ex vivo after a prolonged ischemic period and was effective to provide protection from ischemic injury. As described in Example 2, whole rat hearts were perfused on a Langendorff apparatus. After a 30 minute equilibration period, global ischemia was induced by stopping fluid flow for 45 minutes. The hearts were then reperfused with or without ψεRACK peptide for 20 minutes followed by 40 minutes perfusion without peptide. During the 60 minutes following ischemia (20 minutes of peptide reperfusion plus 40 minutes perfusion), the CPK activity in the perfusate was analyzed.
Rat hearts were prepared as described in Example 1. After a 30 minute equilibration period, global ischemia was induced by interrupting fluid flow for 45 minutes. The hearts were then reperfused with 0.5 μM of ψεRACK peptide for 20 minutes, followed by 40 minutes of reperfusion without the peptide. As a control, some hearts were left untreated after ischemia. During the 60 minute period following ischemia, ischemia-induced cell damage was determined by monitoring the creatine phosphokinase (CPK) activity (absorbance at 520 nm) in the perfusate collected during reperfusion.

[5] = test system: pig heart; assay: Left ventricurogram (ejection fraction) in pigs after LAD occlusion; type: in vivo
Description: In another study, left ventricurogram (LVG) was performed in pigs (n=5) at three time points: (1) before occlusion of left anterior descending artery by balloon catheter (before occlusion); (2) immediately after reperfusion with 5 μM/10 mL of ψεRACK (post ψεRACK); and (3) before sacrifice five days later (5 days post), using 6 Fr. of pig-tail catheter. LVG was recorded by two views, right anterior oblique and left anterior oblique. Ejection fraction (EF), the percent of blood ejected in a beat, during maximum contraction, of the total maximum present in the left ventricle, was analyzed by the software, Plus Plus (Sanders Data Systems), and the averages of two views were evaluated. […] Accordingly, delivery of a ψεRACK peptide in vivo after ischemia is effective to reduce cell and tissue damage, as evidenced by an ejection fraction at least 10% greater than that of untreated cells or tissues.

[6] = pigs, 5 days post ischemia and treatment

Sequence | creatine phosphokinase (CPK) release during reperfusion [1] | infarct of area at risk [2] | coronary perfusion pressure [3] | elevated LVP end diastolic pressure [3] | lower total CPK release versus untreated hearts [4] | reduction of percent infarct versus scrambled peptide control ([2]; infarct area as percent of area at risk, in grams of cardiac tissue, FIG. 4C) | ejection fraction after occlusion compared to control animals treated with scrambled peptide ([5]; pigs n=5, 5 μM/10 mL ψεRACK, immediately after reperfusion, FIG. 5) | ejection fraction compared with that before ischemia [5, 6] | ejection fraction higher than the untreated animals [5, 6]
PDYHDAGI (scrambled pseudo-epsilon RACK octapeptide) [scrambled ψεRACK, scrambled ψεRACK octapeptide, negative control, reference compound] | significant release of CPK | 36.5±0.3% |  |  |  |  |  |  | 
HDAPIGYD (pseudo-epsilon RACK octapeptide) [ψεRACK, ψεRACK octapeptide, εPKC specific agonist peptide] | close to the control hearts maintained under normoxia conditions | 14.9±6% | reduced | reduced | ~2 fold | more than 2 fold | higher ejection fraction | on par with that measured prior to ischemia | about 10%

Source: patent US8592363B2, “ψεrack peptide composition and method for protection against tissue damage due to ischemia” (The Board of Trustees of the Leland Stanford Junior …, priority 2000, dated 2013)
